According to BindingDB's records for PubMed 1646322 (Mayo Clinic, 1991):

What was measured:
[1] = target: T1, Muscarinic acetylcholine receptor M4 (Rattus norvegicus, UniProt P08485)
T1 sequence (P08485 whole entry): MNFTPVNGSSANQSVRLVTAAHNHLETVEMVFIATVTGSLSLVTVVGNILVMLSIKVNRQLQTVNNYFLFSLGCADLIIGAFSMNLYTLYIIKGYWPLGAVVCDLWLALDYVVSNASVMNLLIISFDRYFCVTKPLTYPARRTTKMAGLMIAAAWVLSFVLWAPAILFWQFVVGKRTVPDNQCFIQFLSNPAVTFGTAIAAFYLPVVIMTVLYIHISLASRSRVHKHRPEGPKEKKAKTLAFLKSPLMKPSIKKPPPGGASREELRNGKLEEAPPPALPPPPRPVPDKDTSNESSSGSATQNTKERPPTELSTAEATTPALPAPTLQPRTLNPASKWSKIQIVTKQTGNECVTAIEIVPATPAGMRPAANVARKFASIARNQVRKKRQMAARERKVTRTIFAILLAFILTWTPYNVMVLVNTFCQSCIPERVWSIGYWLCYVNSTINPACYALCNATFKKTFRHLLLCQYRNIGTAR

[2] = target: T2, Muscarinic acetylcholine receptor M1 (Rattus norvegicus, UniProt P08482)
T2 sequence (P08482 whole entry): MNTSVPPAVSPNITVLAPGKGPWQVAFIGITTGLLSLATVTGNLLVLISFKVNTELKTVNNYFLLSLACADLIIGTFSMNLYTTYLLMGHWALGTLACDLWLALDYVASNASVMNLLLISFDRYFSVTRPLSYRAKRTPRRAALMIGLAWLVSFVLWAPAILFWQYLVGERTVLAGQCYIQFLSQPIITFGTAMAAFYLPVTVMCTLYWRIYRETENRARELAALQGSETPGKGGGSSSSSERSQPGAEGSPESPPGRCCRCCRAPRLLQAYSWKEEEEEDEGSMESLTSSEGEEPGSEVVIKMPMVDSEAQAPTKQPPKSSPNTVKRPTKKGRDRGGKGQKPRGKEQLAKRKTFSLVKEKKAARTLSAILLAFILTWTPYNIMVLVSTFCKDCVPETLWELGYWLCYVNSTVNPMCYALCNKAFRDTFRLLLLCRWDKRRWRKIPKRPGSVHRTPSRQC

Compound | Ki [1] | Ki [2]
C[N+]1(C)CCC(OC(=O)C(c2ccccc2)c2ccccc2)CC1 | 1.4 nM | –
CCN(CC)CC1CCCCN1CC(=O)N1c2ccccc2C(=O)Nc2cccnc21 (stereo not drawn) [(AF-DX 116) 11-[2-(2-Diethylaminomethyl-piperidin-1-yl)-acetyl]-5,11-dihydro-benzo[e]pyrido[3,2-b][1,4]diazepin-6-one] | 614 nM | 1200 nM
O[Si](CCCN1CCCCC1)(c1ccccc1)C1CCCCC1 (stereo not drawn) [HHSiD] | 47 nM | 60 nM
COc1ccccc1CNCCCCCCNCCCCCCCCNCCCCCCNCc1ccccc1OC [METHOCTRAMINE] | 410 nM | –
CCN(CCCC(=O)C1CCCCC1)C(C)Cc1ccc(OC)cc1 (stereo not drawn) [NSC_42470] | 7.8 nM | 5.9 nM
